Literature values, collected in patent publication US20050158380A1, “Sustained release oral dosage forms of gabapentin” (priority 2002, published 2005).

Settings: in vivo

## NCC1(CC(=O)O)CCCCC1 [Gabapentin, 1-(aminomethyl)cyclohexaneacetic acid]
  half-life: 5 to 7 h
